According to patent US11390629B2, “1,5-disubstituted 1,2,3-triazoles are inhibitors of Rac/Cdc42 GTPases” (UNIVERSITY OF PUERTO RICO, priority 2016, dated 2022):
Entries after “also recorded” stand apart in the source; their conditions may differ.

Tests used:
[1] = tested on: caspase-3/7 activity in MDA-MB-231 cells; experiment: Caspase-Glo 3/7 apoptosis assay; type: cell-based, human; settings: 0-1000 nM, 24 h, MDA-MB-231 and GFP-HER2-BM
Procedure: Effect of MBQ-167 on cell survival.
To evaluate whether the cell cycle arrest was accompanied by an increase in apoptosis, the activity of the effector caspases3/7 in whole cell populations (both attached and detached). […] To determine whether MBQ-167 induces anoikis, the relative levels of caspase-3/7 activities were analyzed in the attached and detached MDA-MB-231 cell populations following 24 h at 250 nM MBQ-167.
Apoptosis was measured using a Caspase-Glo3/7 Luminescence Assay Kit as per manufacturer's instructions (Promega, Corp., Madison, Wis., USA). Following treatment of equal numbers of cells with vehicle or MBQ-167 for 24 h, Caspase-3/7 Glo reagent was added and incubated at room temperature for 60 min. Caspase-3/7 activities were determined by quantifying luminescence.

MCF10A and MCF-7 cells = experiment: Bright field cell phenotype, epithelial cells; type: cell-based, human; settings: up to 500 nM
Procedure: FIGS. 2A, 2B, 2C. Breast cancer cell phenotype following MBQ-167 treatment.
Human breast cancer cells were visualized by bright field microscopy following MBQ-167 treatment. At ≥100 nM, starting at six hours, MBQ-167 induced a loss of polarity in metastatic breast cancer cells. […] On the other hand, non-cancer mammary epithelial MCF10A and epithelial breast cancer MCF-7 cells were resistant to MBQ-167 and remained polarized and attached to each other and the substratum (FIG. 2A).

[2] = tested on: GFP-HER2-BM mammary fat pad tumors; experiment: Mammary fat pad tumor growth, GFP-HER2-BM cells in nude mice; type: in vivo; settings: for reduction in tumor growth: 65 days; for Optimal % Change in Tumor Size (% T/C): day 65, control = 100; for Time in Days for Doubling of Tumor size, 2^1: control 8; for Time in Days for Doubling of Tumor size, 2^2: control 14.5; for Time in Days for Doubling of Tumor size, 2^3: control 27.7; for Time in Days for Doubling of Tumor size, 2^4: control 33.3
Procedure: FIGS. 6A-1, 6A-2, 6B, 6C, 6D, 6E. In-vivo efficacy of MBQ-167 in HER2-type breast cancer.
To test the effect of MBQ-167 on mammary tumor progression, nude mice were used to establish mammary fatpad tumors from GFP-HER2-BM cells. One week following mammary tumor establishment, the mice were treated 3× a week with 0, 1, or 10 mg/kg BW MBQ-167 by i.p. for 65 days.
Mice were treated with vehicle (12.5% ethanol, 12.5% Cremophor (Sigma-Aldrich, St. Louis, Mo.), and 75% 1×PBS pH 7.4), or 1 or 10 mg/kg BW MBQ-167 by i.p. injection in a 100 μL volume 3× a wk. Treatments continued until sacrifice at day 65.

[3] = Toxicity observation: mouse weight and phenotype; type: in vivo, mice; settings: 65-day study, 1 and 10 mg/kg BW; listed as MBQ-167
From the text: The mice from this study were also examined once a week for potential toxicity. […] At necropsy, livers were harvested, lysed and subjected to liver enzyme assays as a test for potential toxic effects.

[4] = Liver enzyme assays (ALP, ALT) after necropsy; type: in vivo, nude mice; settings: listed as MBQ-167
From the text: . Mammary fatpad tumors were established in nude mice by inoculating 5×10^5 GFP-HER2-BM cells; […]; FIG. 6B, Representative fluorescence micrographs of lungs, spleens, and kidneys from vehicle or MBQ-167 treated mice following necropsy; […]; Following necropsy, livers were harvested, lysed and subjected to FIG. 6D, ALP activity or FIG. 6E, ALT activity assays; N=4, error bars represent ±S.E.M.
The mice from this study were also examined once a week for potential toxicity. […]. At necropsy, livers were harvested, lysed and subjected to liver enzyme assays as a test for potential toxic effects. […]. Frozen stored livers were thawed and homogenized to measure alkaline phosphatase (ALP) and alanine transaminase (ALT) activities using colorimetric assay kits from Abeam and Cayman Chemicals respectively, as per manufacturer's instructions.

PAK = experiment: Western blot of PAK activity, MCF-7 cells; type: cell-based, human; settings: MCF-7, 250 nM, 24 h; listed as MBQ-167
STAT3 = experiment: Western blot of STAT3 phosphorylation (Y705); type: cell-based, human; settings: 24 h, attached and detached MDA-MB-231 and GFP-HER2-BM cells
From the text: FIGS. 12A, 12B. Effect of MBQ-167 on STAT3 activation and cell migration in GFP-HER2-BM metastatic cancer cells.

[5] = tested on: p38-MAPK, p42/44 MAPK, Akt; experiment: Western blot of MAPK and Akt signaling, MDA-MB-231; type: cell-based, human; settings: 250 nM, 24 h
From the text: FIGS. 13A, 13B. MAPK and Akt signaling in MDA-MB-231 cells. […] Representative western blots of N=3 are shown.

GFP-MDA-MB-231 cells = experiment: Annexin V-Cy3-18 staining; type: cell-based, human; settings: 250 or 500 nM, 6 h
Procedure: FIG. 14. Annexin V staining in response to MBQ-167. GFP-MDA-MB-231 cells growing on coverslips were treated with vehicle or MBQ-167 at 250 or 500 nM for 6 h; Cells were fixed in formaldehyde and stained with Annexin V-Cy3-18; Representative fluorescence micrographs are shown; Arrows indicate red fluorescent Annexin V staining at the membranes of apoptotic cells.
Apoptotic cells were detected by fluorescence microscopy of Annexin V-Cy3-18 stained cells as per manufacturer's instructions (Sigma-Aldrich, St Louis, Mo., USA). Briefly, GFP-MDA-MB-231 cells grown on coverslips were treated with vehicle, or 250 or 500 nM MBQ-167 for 6 h and stained with Annexin V-Cy3-18 in binding buffer (10 mM HEPES/NaOH, pH 7.5, 0.14 M NaCl, 2.5 mM CaCl2) for 15 min at room temperature. Coverslips were washed in binding buffer and fixed with 3.7% paraformaldehyde prior to fluorescence microscopy. Images were digitally acquired from an Olympus inverted fluorescence microscope.

Cdc42 = Cdc42 (Homo sapiens, UniProt P60953); experiment: G-LISA Cdc42 activity, GFP-HER2-BM cells; type: cell-based; set-up: endogenous in cells; host or cells: MDA-MB-231; settings: 250 nM, 24 h
Sequence of Cdc42 (P60953 whole entry): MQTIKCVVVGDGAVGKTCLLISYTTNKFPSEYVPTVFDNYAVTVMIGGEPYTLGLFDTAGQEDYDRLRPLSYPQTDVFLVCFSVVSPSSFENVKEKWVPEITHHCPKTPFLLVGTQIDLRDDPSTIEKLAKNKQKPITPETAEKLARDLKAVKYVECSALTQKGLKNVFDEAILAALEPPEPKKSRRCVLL

Rho = Rho activation pulldown (Rhotekin), GFP-HER2-BM cells; settings: 24 h, listed as MBQ-167

CCn1c2ccccc2c2cc(-n3nncc3-c3ccccc3)ccc21 [I-1, 9-ethyl-3-(5-phenyl-1H-1,2,3-triazol-1-yl)-9H-carbazole]
caspase-3/7 activity in whole cell populations [1]: dose-dependent increase | cell rounding and detachment phenotype (MCF10A and MCF-7 cells): resistant | reduction in tumor growth ([2]; 1.0 mg/kg BW i.p. 3x a week): ~80% | Optimal % Change in Tumor Size (% T/C) ([2]; 1 mg/kg BW i.p. 3x a week): 58% | Time in Days for Doubling of Tumor size, 2^1 ([2]; 1 mg/kg BW): 10 days | Time in Days for Doubling of Tumor size, 2^2 ([2]; 1 mg/kg BW): 30 days | Time in Days for Doubling of Tumor size, 2^3 ([2]; 1 mg/kg BW): 57 days | Time in Days for Doubling of Tumor size, 2^4 ([2]; 1 mg/kg BW): never reached | reduction in tumor growth ([2]; 10 mg/kg BW i.p. 3x a week): ~95% | Optimal % Change in Tumor Size (% T/C) ([2]; 10 mg/kg BW i.p. 3x a week): 9% | reduction of mammary fat pad tumor size ([2]; 10 mg/kg BW, by 2 months): 91% | Time in Days for Doubling of Tumor size, 2^1 ([2]; 10 mg/kg BW): 11 days | Time in Days for Doubling of Tumor size, 2^2 ([2]; 10 mg/kg BW): 30 days | Time in Days for Doubling of Tumor size, 2^3 ([2]; 10 mg/kg BW): never reached | Time in Days for Doubling of Tumor size, 2^4 ([2]; 10 mg/kg BW): never reached | inhibition of mammary tumor growth and metastasis ([2]; immunocompromised mice): ~90% | weight loss or phenotypic changes [3]: did not show any significant weight loss or phenotypic changes; also recorded: does not exert toxic effects | liver ALT activity ([4]; 10 mg/kg BW): significantly increased; also recorded: increases | liver ALP activity ([4]; 1 and 10 mg/kg BW): does not significantly affect | effect on PAK activity (PAK): did not affect; also recorded: does not inhibit | effect on STAT3 activity (STAT3): decreased STAT3 activity | effect on p38-MAPK, p42/44 MAPK and Akt activities [5]: did not affect | Annexin V staining (GFP-MDA-MB-231 cells): increased Annexin V staining | Rac Activity (Active Rac/Total Rac) (Rac; 250 nM, 24 h, MCF-7 cells, vehicle = 1.0): 1.075 ± 0.3 | effect on Rac activity (Rac; MCF-7, 250 nM, listed as MBQ-167): insensitive; also recorded: does not affect | effect on Cdc42 activity (Cdc42): inhibits | effect on Rho activity (Rho): did not affect; also recorded: does not affect
